{
  "source": "patent US20170152245A1",
  "about": "(National Taiwan University, priority 2015, published 2017)",
  "key": {"[1]": {"tested_on": "human platelet suspension", "experiment": "Collagen-induced platelet aggregation in human platelet suspension", "type": "cell-based", "settings": "collagen 10 μg/ml; for IC50: Platelet, washed human platelets, read-out: IC50 collagen-induced platelet aggregation in human PS", "experimental": "(§1) Human platelet suspension (PS) was prepared according to the method described previously. Briefly, blood sample, freshly obtained from healthy volunteers who had taken no medications during the preceding 2 weeks, was treated with acid citrate/dextrose (ACD) in a volume ratio of 9:1. After centrifugation at 120 g, 25° C. for 9 min, platelet-rich plasma was transferred into another plastic tube and incubated with heparin (6.4 U/ml) as well as prostaglandin E1 (1 μM). Platelets were spun down by centrifugation at 500 g, 25° C. for 8 min and subsequently washed two times with Tyrode solution (NaH2PO4 0.4 mM; NaCl 136.9 mM; KCl […]; NaHCO3 11.9 mM; CaCl2 2 mM; MgCl2 2.1 mM; glucose 11.1 mM; BSA 3.5 mg/ml; pH 7.35-7.4). The washed platelets were finally suspended in Tyrode's solution and the platelet count was adjusted to 3.75×10^8 platelets/ml. For platelet-rich plasma (PRP) preparation, whole blood was anticoagulated with 1/10 vol of sodium citrate (3.8%, w/v) and centrifuged at 150 g, 25° C. for 9 min.\n(§2) Platelet aggregation was measured turbidimetrically with a Lumi-aggregometer (Payton Scientific) at 37° C. under stirring condition (900 rpm). Platelet suspensions were prewarmed to 37° C. for 2 min in a silicone-treated glass cuvette. Nstpbp5185 was added 3 min before the addition of platelet-aggregation inducers. The extent of platelet aggregation was determined by recording the increase of light transmission relative to that of control (maximal aggregation, as 100%) for 6 min after the addition of inducer. The final volume and platelet count for measuring platelet aggregation were 500 μl and 3×10^8/ml, respectively."}, "[2]": {"tested_on": "human platelet suspension", "experiment": "Arachidonic acid-induced platelet aggregation in human platelet suspension", "type": "cell-based", "settings": "AA 200 μM", "experimental": "as §1, §2"}, "[3]": {"tested_on": "human platelet suspension", "experiment": "U46619-induced platelet aggregation in human platelet suspension", "type": "cell-based", "settings": "for IC50: Homo sapiens; for shift of the concentration-response curve of U46619: nstpbp5185 2 and 3 μM with indomethacin, Ctkf6f2 1 μM; for U46619 needed to induce the full aggregation: platelets pretreated with 1 μM compound"}, "[4]": {"tested_on": "human platelet-rich plasma", "experiment": "Collagen-induced platelet aggregation in human platelet-rich plasma", "type": "cell-based", "experimental": "as §1, §2"}, "human platelets": {"tested_on": "human platelets", "experiment": "Platelet [Ca2+]i mobilization by Fura 2-AM fluorescence", "type": "cell-based", "settings": "for collagen-evoked increase of [Ca2+]i: collagen 10 μg/ml, Fura-2-loaded platelets", "experimental": "After centrifugating platelet-rich plasma at 500 g, 25° C. for 8 min, isolated platelets were resuspended in Ca^2+-free Tyrode solution. The platelet suspensions were protected from light and incubated with Fura 2-AM (5 μM) at 37° C. for 30 min. Human platelets were then prepared as described previously. The washed platelet count was adjusted to 3-4.5×10^8 platelets/ml. Finally, the external Ca^2+ concentration of the platelet suspensions was adjusted to 1 mM. The rise in [Ca^2+]i was measured using a fluorescence spectrophotometer (CAF 110, Jasco, Japan) at excitation wavelengths of 340 and 380 nm, and an emission wavelength of 500 nm. [Ca^2+]i was calculated from the fluorescence, using 224 nM as the Ca^2+-Fura 2 dissociation constant."}, "[5]": {"tested_on": "human platelet suspension", "experiment": "Thromboxane B2 formation in human platelet suspension", "type": "cell-based", "experimental": "Human platelet suspension (3.75×10^8/ml) was preincubated in the presence or absence of nstpbp5185 or aspirin for 3 min before the addition of collagen or AA. Six minutes after the addition of agonist, […] indomethacin and 2 mM EDTA were added to the reaction suspension. After centrifugation in an Eppendorf centrifuge at 14,000 g for 2 min, the thromboxane B2 (TXB2), the stable metabolite of TXA2, levels of the supernatant were measured using a competitive enzyme-immuno assay (EIA) kit according to the instructions of the manufacturer."}, "mice": {"tested_on": "mice", "experiment": "Pulmonary thromboembolism caused by collagen/epinephrine", "type": "in vivo", "settings": "for survival rate after 1 day: n=4", "experimental": "(A) Mice were i.v. injected with vehicle (DMSO as control), nstpbp5185 (10 μg/g) or Ctkf6f2 (10 μg/g), then injected with collagen/epinephrine to induce pulmonary embolism model. After the onset of respiratory arrest, lungs were excised. […] Histologic analysis was performed on H&E-stained sections of lung from each mouse. […] (B) Survival rate of mice injected with DMSO as control, nstpbp5185 (10 μg/g) or Ctkf6f2 (10 μg/g) after induction of pulmonary thromboembolism in 30 min, 1 hr and 24 hr (n=4). (C) Representative images of lung isolated after the onset of respiratory arrest, but while the heart was still beating, 0.5 ml of Evans blue solution was injected into the heart. Lungs were excised, and photographed.\nMale mice (ICR, 25±3 g) received collagen (0.6 μg/g) plus epinephrine (0.2 μg/g) by tail vein injection. While the respiration is very weak and the heart was still beating, 0.5 mL of Evans blue solution (1% in saline; Sigma) was injected into the heart. Lungs were excised, photographed and fixed with paraldehyde, embedded into paraffin, and sectioned. Histological analysis was performed on hematoxylin and eosin-stained (H&E) sections of lung from each mouse. Nstpbp5185 (10 μg/g) or DMSO vehicle was intravenously given prior to collagen/epinephrine. Mortality after challenge was calculated as percentage of death after injection of collagen/epinephrine, the end time will be […]."}, "[6]": {"tested_on": "receptor tyrosine kinases", "experiment": "Receptor tyrosine kinases safety profile", "type": "biochemical", "design": "dose or concentration left out as unconfirmed", "experimental": "These kinases or enzymatic assays were performed by MDS according to the standardized methods"}, "[7]": {"settings": "Platelet, U46619 1 μM, washed human platelets, read-out: IC50 U46619-induced aggregation"}, "[8]": {"settings": "Homo sapiens, Platelet, collagen 10 μg/ml, read-out: inhibition of TXB2 compared to the control"}},
  "note": "Where two headings read alike, the source gives them in different places.",
  "data": [
    {"smiles": "Cc1ccc(-c2nc3ccc(F)cc3n2Cc2cccc(F)c2)o1", "note": "[Ctkf6f2, 6-fluoro-1-(3-fluorobenzyl)-2-(5-methyl-2-furyl)benzimidazole]", "values": [
      {"measurement": "IC50", "setting": "[1]", "value": "3.4 ± 0.62", "unit": "µM"},
      {"measurement": "IC50", "setting": "[2]", "value": "3.2 ± 0.99", "unit": "µM"},
      {"measurement": "IC50", "setting": "[3]; [7]", "value": "1.17 ± 0.23", "unit": "µM"},
      {"measurement": "inhibition at 1 µM", "setting": "[3]; Platelet, human washed platelets, 1 μM compound, U46619 1 μM", "value": 50, "unit": "%"},
      {"measurement": "shift of the concentration-response curve of U46619", "setting": "[3]", "value": "right-shift"},
      {"measurement": "U46619 needed to induce the full aggregation", "setting": "[3]", "value": "around 2 μM"},
      {"measurement": "IC50", "setting": "[4]; Homo sapiens, collagen 5 μg/ml, read-out: IC50 collagen-induced aggregation in platelet-rich plasma", "value": "31.3 ± 7.68", "unit": "µM"},
      {"measurement": "U46619-induced calcium mobilization", "setting": "human platelets; U46619 1 μM, 1 μM-3 μM compound", "value": "markedly inhibited"},
      {"measurement": "collagen-evoked increase of [Ca2+]i", "setting": "human platelets", "value": "concentration-dependently inhibited"},
      {"measurement": "inhibition at 0.3 µM", "setting": "[5]; Homo sapiens, Platelet, collagen 10 μg/ml, 0.3 μM, read-out: inhibition of TXB2 compared to the control", "value": 33, "unit": "%"},
      {"measurement": "inhibition at 1 µM", "setting": "[5]; [8]", "value": 43.9, "unit": "%"},
      {"measurement": "inhibition at 3 µM", "setting": "[5]; Homo sapiens, Platelet, collagen 10 μg/ml, 3 μM, read-out: inhibition of TXB2 compared to the control", "value": 64.7, "unit": "%"},
      {"measurement": "inhibition at 10 µM", "setting": "[5]; Homo sapiens, Platelet, collagen 10 μg/ml, 10 μM, read-out: inhibition of TXB2 compared to the control", "value": 73.5, "unit": "%"},
      {"measurement": "emboli in lung sections compared with 5185", "setting": "mice; 10 μg/g i.v.", "value": "smaller emboli"},
      {"measurement": "survival rate after 1 day", "setting": "mice; 10 μg/g i.v.", "value": 100, "unit": "%"},
      {"measurement": "effects on receptor tyrosine kinases", "setting": "[6]", "value": "little effects"}
    ]},
    {"smiles": "Cc1ccc(-c2nc3ccccc3n2Cc2ccccc2)o1", "note": "[Example 6, 1-Benzyl-2-(5-methyl-2-furyl)benzimidazole]", "values": [
      {"measurement": "IC50", "setting": "[1]", "value": "~1.3", "unit": "µM"},
      {"measurement": "% inhibition collagen", "setting": "[1]; human platelet suspension, preliminary, compound concentration not given", "value": "71.2 (n = 2) %"},
      {"measurement": "IC50", "setting": "[2]", "value": "3.9 ± 0.2", "unit": "µM"},
      {"measurement": "IC50", "setting": "[3]; [7]", "value": "~2.5", "unit": "µM"},
      {"measurement": "IC50", "setting": "[3]; Platelet, U46619-induced aggregation, platelet suspension, read-out: P.S(U46619) IC50", "value": 2.45, "unit": "µM"},
      {"measurement": "inhibition of aggregation induced by U46619", "setting": "[3]; human washed platelets, 1 μM compound, U46619 1 μM", "value": "could not effectively inhibit"},
      {"measurement": "shift of the concentration-response curve of U46619", "setting": "[3]", "value": "right-shift"},
      {"measurement": "U46619 needed to induce the full aggregation", "setting": "[3]", "value": 0.5, "unit": "µM"},
      {"measurement": "IC50", "setting": "[4]; human PRP, data not shown, read-out: IC50 collagen-induced platelet aggregation in human PRP", "value": "64.2 ± 2.5", "unit": "µM"},
      {"measurement": "collagen-evoked increase of [Ca2+]i", "setting": "human platelets", "value": "markedly inhibited"},
      {"measurement": "thrombin-evoked increase of [Ca2+]i", "setting": "human platelets; thrombin 0.1 U/ml, even at 60 μM", "value": "no effect"},
      {"measurement": "inhibition at 1 µM", "setting": "[5]; [8]", "value": 52.6, "unit": "%"},
      {"measurement": "TXB2 generation of AA-stimulated platelets", "setting": "[5]; arachidonic acid 200 μM, 0.7, 2 and 6 μM", "value": "concentration-dependently inhibited"},
      {"measurement": "TXB2 generation of collagen-stimulated platelets", "setting": "[5]; collagen 10 μg/ml, 0.7, 2 and 6 μM", "value": "concentration-dependently inhibited"},
      {"measurement": "survival rate after 1 day", "setting": "mice; 10 μg/g i.v.", "value": 100, "unit": "%"},
      {"measurement": "mortality after collagen/epinephrine within 1 hr", "setting": "mice; 5 and 10 μg g^−1, intravenous injection", "value": "completely protected mice from death"},
      {"measurement": "microemboli in lung sections", "setting": "mice; nstpbp5185-treated mice vs control", "value": "few microemboli"},
      {"measurement": "effects on receptor tyrosine kinases", "setting": "[6]", "value": "little effects"}
    ]}
  ]
}
